Measured values reported in article PMC10434227 (Microbiology Spectrum, 2023).
Counter-ions that a name gives are not always drawn. Like-named read-outs stand apart in the source and are kept apart here.

Legend:
rVACV Nluc/GFP [1] = assay: microbe, parasite or virus in culture; assay type: cell-based, vaccinia virus (VACV)
[2] = tested on: MPXV USA-2003 (NR-2500) clade II; assay: microbe, parasite or virus in culture; assay type: cell-based, monkeypox virus (MPXV)
rVACV Nluc/Scarlet [3] = assay: microbe, parasite or virus in culture; assay type: cell-based, vaccinia virus (VACV)
A549 cells [4] = tested on: A549 cells
A549 cells [5] = tested on: A549 cells; remark: listed apart in the source
in vitro [6] = conditions: human
in vitro [7] = conditions: human; remark: listed apart in the source
rVACV Nluc/GFP [8] = assay type: cell-based, vaccinia virus (VACV)
rVACV Nluc/Scarlet [9] = assay type: cell-based, vaccinia virus (VACV)
MPXV = assay type: cell-based, monkeypox virus (MPXV)
[10] = read-out: EC50 FP (GFP fluorescence)
[11] = read-out: EC50 FP (Scarlet fluorescence)
[12] = Orthopoxvirus vaccinia, A549, read-out: EC50 FP (GFP fluorescence)
[13] = Orthopoxvirus vaccinia, A549, read-out: EC50 Nluc
[14] = Monkeypox virus, A549, read-out: EC50 against MPXV
[15] = Orthopoxvirus vaccinia, A549, read-out: EC50 FP (Scarlet fluorescence)

Compound	EC50 (rVACV Nluc/GFP [1]; [10])	EC50 (rVACV Nluc/GFP [1]; read-out: EC50 Nluc)	inhibitory activity against MPXV (in words) [2]	EC50 ([2]; read-out: EC50 against MPXV)	EC50 (rVACV Nluc/Scarlet [3]; [11])	EC50 (rVACV Nluc/Scarlet [3]; read-out: EC50 Nluc)	CC50 (A549 cells [4])	CC50 (A549 cells [5])	CC50 (in vitro [6])	EC50 (rVACV Nluc/GFP [1]; [12])	EC50 (rVACV Nluc/GFP [1]; [13])	EC50 [2, 14]	CC50 (in vitro [7])	EC50 (rVACV Nluc/Scarlet [3]; [15])	EC50 (rVACV Nluc/Scarlet [3]; [13])	extracellular viral titers (rVACV Nluc/GFP [8])	extracellular viral titers (rVACV Nluc/Scarlet [9])	extracellular viral titers (MPXV)
2,2′-bi-1H-benzimidazole	> 50000 nM	> 50000 nM	did not inhibit MPXV infection	> 50000 nM	> 50000 nM	> 50000 nM	> 50000 nM	> 50000 nM										
2′,3′,5′-triacetyl-6-azauridine [Azaribine]	1030 nM	1130 nM			1320 nM	1410 nM	> 150000 nM	> 150000 nM										
CC[C@H](CC#N)OC(=O)N[C@@H](C)c1cccc(NC(=O)Nc2ccc(-c3cnco3)c(OC)c2)c1 [AVN-944]									> 50000 nM	70 nM	70 nM	170 nM	> 50000 nM	130 nM	110 nM			
S=C(NCc1ccc2c(c1)OCO2)N1CCN(c2ncnc3c2oc2ccccc23)CC1 [Amuvatinib, amuvatinib]						6630 nM				3260 nM	3890 nM	3470 nM		4760 nM	6830 nM			
CCCCCC[C@H]1C(=O)O[C@H](C)[C@H](NC(=O)c2cccc(NC=O)c2O)C(=O)O[C@@H](C)[C@@H]1OC(=O)CC(C)C [Antimycin A, antimycin A]	60 nM	120 nM								80 nM	130 nM	10 nM		70 nM	90 nM			
O=c1cnn([C@@H]2O[C@H](CO)[C@@H](O)[C@H]2O)c(=O)[nH]1 [Azauridine, 6-azauridine]		1580 nM			640 nM				> 50000 nM	1740 nM	1590 nM	2390 nM	> 50000 nM	840 nM	1510 nM			
CO/C=C(/C(=O)OC)c1ccccc1Oc1cc(Oc2ccccc2C#N)ncn1 [Azoxystrobin, azoxystrobin]	7850 nM	6120 nM		10800 nM	7920 nM	6100 nM	> 450000 nM	27900 nM										
Cc1c(-c2ccc(-c3ccccc3F)cc2)nc2ccc(F)cc2c1C(=O)O [Brequinar, brequinar sodium salt hydrate]		40 nM							> 50000 nM	180 nM	< 40 nM	160 nM	> 50000 nM	120 nM	110 nM			
CC(C)(C)[C@H]1CC[C@H](CC2=C(O)C(=O)c3ccccc3C2=O)CC1 [Buparvaquone, buparvaquone]	1950 nM									1850 nM	1070 nM	7220 nM		1760 nM	1120 nM			
CC[C@@]1([C@@H]2O[C@@H]([C@H]3O[C@@](O)(CO)[C@H](C)C[C@@H]3C)C[C@@H]2C)CC[C@H]([C@]2(C)CC[C@]3(C[C@H](O)[C@@H](C)[C@@H]([C@@H](C)[C@@H](OC)[C@H](C)C(=O)O)O3)O2)O1 [Monensin, monensin sodium salt]									> 50000 nM	80 nM	130 nM	50 nM	> 50000 nM	70 nM	80 nM			
FC(F)(F)c1ccc(/C=C/c2nc(COc3ccc(CCCCn4ccnn4)cc3)co2)cc1 [Mubritinib, mubritinib]					93 nM					65 nM	33 nM	38 nM		50 nM	37 nM			
COc1c(C)c2c(c(O)c1C/C=C(\C)CCC(=O)OCCN1CCOCC1)C(=O)OC2 [Mycophenolate mofetil, mycophenolate mofetil]		930 nM		1960 nM					> 150000 nM	870 nM	800 nM	1060 nM	> 150000 nM	1200 nM	1040 nM			
COc1c(C)c2c(c(O)c1C/C=C(\C)CCC(=O)O)C(=O)OC2 [Mycophenolic acid, mycophenolic acid]									> 150000 nM	590 nM	430 nM	710 nM	> 150000 nM	460 nM	490 nM			
CC[C@@H](C(=O)O)[C@@H]1O[C@@H]([C@@H](C)[C@H](O)[C@H](C)C(=O)[C@H](CC)[C@H]2O[C@]3(C=C[C@@H](O)[C@]4(CC[C@@](C)([C@H]5CC[C@](O)(CC)[C@H](C)O5)O4)O3)[C@H](C)C[C@@H]2C)[C@@H](C)C[C@@H]1C [Narasin, narasin sodium salt]										10 nM	30 nM	50 nM		20 nM	20 nM			
NCC(=O)Nc1ccc(-n2nc(C(F)(F)F)cc2-c2ccc3c(ccc4ccccc43)c2)cc1 [Osu-03012, OSU-03012]		2650 nM								3290 nM	2950 nM	4390 nM		2320 nM	2590 nM			
NC(=O)c1[nH]nc([C@@H]2O[C@H](CO)[C@@H](O)[C@H]2O)c1O [Pyrazofurin, pyrazofurin]					270 nM				> 50000 nM	530 nM	240 nM	3400 nM	> 50000 nM	370 nM	110 nM			
C=C(C)[C@H]1Cc2c(ccc3c2O[C@@H]2COc4cc(OC)c(OC)cc4[C@@H]2C3=O)O1 [Rotenone, rotenone]										10 nM	7 nM	7 nM		15 nM	8 nM			
Fc1ccc(CNc2ncnc3ccc(F)cc23)cc1 [Spautin-1, spautin-1]	4430 nM	2800 nM		3210 nM	6780 nM	3040 nM	> 50000 nM	8000 nM										
O=C(NN1C(=O)[C@@H]2[C@@H]3C=C[C@@H]([C@H]4C[C@@H]34)[C@@H]2C1=O)c1ccc(C(F)(F)F)cc1 [Tecovirimat, tecovirimat]			potently inhibited MPXV	150 nM		70 nM			> 50000 nM			120 nM	> 50000 nM		80 nM	dose-dependent decrease	dose-dependent decrease	dose-dependent decrease
O=C1c2ccccc2-n2c1nc1ccccc1c2=O [Tryptanthrin, tryptanthrin]				4780 nM	1380 nM	970 nM				1340 nM	810 nM	4790 nM		1390 nM	870 nM			
CC(C)[C@@H]1NC(=O)[C@H](C)OC(=O)[C@@H](C(C)C)NC(=O)[C@@H](C(C)C)OC(=O)[C@H](C(C)C)NC(=O)[C@H](C)OC(=O)[C@@H](C(C)C)NC(=O)[C@@H](C(C)C)OC(=O)[C@H](C(C)C)NC(=O)[C@H](C)OC(=O)[C@@H](C(C)C)NC(=O)[C@@H](C(C)C)OC1=O [Valinomycin, valinomycin]										3 nM	2 nM	1 nM		3 nM	2 nM			
